Patent US20150202179A1, “FATTY ACID DERIVATIVES FOR USE IN A METHOD OF TREATING DEPRESSION AND ASSOCIATED CONDITIONS” (YISSUM RESEARCH DEVELOPMENT COMPANY OF THE HEBREW …, priority 2012, published 2015)
“Also recorded” adds a separate entry of the source.

How the values were obtained:
serotonin (5HT) levels = test: Serotonin (5HT) determination in brain tissue by HPLC with electrochemical detection; type: in vivo, mice; conditions: for 5HT: ng/g wet tissue +/− SEM; for 5HT levels in the hypothalamus vs. control / 5HT levels in the hippocampus vs. control: result in words
Protocol: (§1) Solution of DHBA as internal standard in the concentration of: 1 μg/ml in 0.1M perchloric acid, were prepared. Standard solutions of NE and 5HT in the concentration of 1-0.1 μg/ml in 0.1M perchloric acid were prepared.
(§2) Tissues (hypothalamus and hippocampus) obtained from 6-8 mice were dissected on ice surface and kept at −80 C. Hypothalamus (HT) or hippocampus (HC) from 1 mice were weighted (weight of HT −10-20 mg, HC 30-40 mg) and placed in eppendorf micro-centrifuge tube, 1.5 ml. To each tube was added 120-160 μl of ice cold solution of Perchloric acid and DHBA, homogenized in ice bath on Sonics vibra cell, 3×20 sec., 0.4 watts and centrifuged at 14,000×g at 4° C. 10 min. Supernatant gained was stored in ice before analysis.
(§3) The HPLC system consisted of Jasco PU-980 pump, Jasco AS-950-10 autosampler cooled at 4° C., H3 ODS-125A 3 μm 125 mm×4.6 mm i.d. analytical column (Hichrom, UK) were used. Electrochemical detector Coulochem ESA 5100A with analytical cell model 5011 was used for control detector voltage and record the current. Working electrode was set at potential +350 mV. Control and data collection/processing were handled through Borwin chromatography software.
(§4) The mobile phase composition: A stock buffer was prepared as follows: 20 mM sodium dihydrogenorthophosphate, EDTA 3 mg/l, 1-heptanesulfonic acid 1 g/l were dissolved in 1 liter deionized distilled water and buffered to pH 3.7 using concentrated phosphoric acid. To prepare the mobile phase buffer was mixed with acetonitrile (Baker HPLC analyzed) in the ratio 85:15 (v/v), filtered through a 0.2 μm membrane filter and degassed under vacuum after mixing. Mobile phase flow rate 1 ml/min. Injection volume 20 μl, retention time for DHBA 4.2 min., norepinephrine—3.1 min., 5HT 8.6 min. For calibration curve 1 ug/ml solution of DHBA together with 1.0-0.1 μg/ml solutions of 5HT and NE were used. The ratio between 5HT or NE and DHBA used to calculate the level of 5HT and NE in the sample. Date are given in ng/g wet tissue +/−SEM.

[1] = tested on: Norepinephrine (NE) levels; test: Norepinephrine (NE) determination in brain tissue by HPLC with electrochemical detection; type: in vivo, mice; conditions: for NE: ng/g wet tissue +/− SEM; for norepinephrine levels in the hippocampus vs. control / norepinephrine levels in the hypothalamus vs. control: result in words
Protocol: as §1, §2, §3, §4

## CCCCCCCC/C=C\CCCCCCCC(=O)N[C@@H](CO)C(C)C [Compound 11, Oleoyl-D-Valinol]
Serotonin (5HT) levels; Hypothalamus
  5HT: 777.8 ± 79.1 ng/g
Serotonin (5HT) levels
  5HT levels in the hypothalamus vs. control: increased significantly

## CCCCC/C=C\C/C=C\CCCCCCCC(=O)N[C@H](CO)C(C)C [Compound 10, Linoleoyl-L-Valinol amide]
[1]; Hippocampus
  NE: 407.9 ± 48.9 ng/g
[1]
  norepinephrine levels in the hippocampus vs. control: significantly enhanced; also recorded: increase significantly
Serotonin (5HT) levels; Hippocampus
  5HT: 299.2 ± 22.8 ng/g
Serotonin (5HT) levels
  5HT levels in the hippocampus vs. control: significantly enhanced; also recorded: increased significantly

## CCCCC/C=C\C/C=C\CCCCCCCC(=O)N[C@H](CO)CC(C)C [Compound 4, Linoleoyl-L-Leucinol amide]
[1]; Hippocampus
  NE: 302.5 ± 22.4 ng/g
[1]
  norepinephrine levels in the hippocampus vs. control: significantly enhanced; also recorded: increase significantly
Serotonin (5HT) levels; Hippocampus
  5HT: 380.4 ± 12.8 ng/g
Serotonin (5HT) levels
  5HT levels in the hippocampus vs. control: significantly enhanced; also recorded: increased significantly

## CCCCCCCC/C=C\CCCCCCCCOC(=O)N[C@@H](CO)C(C)C [Compound 13, Oleyloxycarbonyl-D-Valinol amide]
[1]; Hippocampus
  NE: 396.7 ± 44.7 ng/g
[1]; Hypothalamus
  NE: 1002 ± 62.7 ng/g
[1]
  norepinephrine levels in the hippocampus vs. control: significantly enhanced; also recorded: increase significantly
Serotonin (5HT) levels; Hippocampus
  5HT: 300.1 ± 41.5 ng/g
Serotonin (5HT) levels; Hypothalamus
  5HT: 831.3 ± 29.1 ng/g
Serotonin (5HT) levels
  5HT levels in the hippocampus vs. control: significantly enhanced; also recorded: increased significantly
  5HT levels in the hypothalamus vs. control: increased significantly

## CCCCCCCC/C=C/CCCCCCCC(=O)N[C@H](CO)C(C)C [Compound 7, Elaidoyl-L-Valinol amide]
Serotonin (5HT) levels; Hippocampus
  5HT: 335.4 ± 45.4 ng/g
Serotonin (5HT) levels; Hypothalamus
  5HT: 856.5 ± 115.2 ng/g
Serotonin (5HT) levels
  5HT levels in the hippocampus vs. control: increased significantly
  5HT levels in the hypothalamus vs. control: increased significantly

## Oleylamino-D-2-hydroxyvaline amide [Compound 19]
[1]; Hippocampus
  NE: 296.4 ± 24.8 ng/g
[1]
  norepinephrine levels in the hippocampus vs. control: significantly enhanced; also recorded: increase significantly
Serotonin (5HT) levels; Hippocampus
  5HT: 296.3 ± 33.2 ng/g
Serotonin (5HT) levels
  5HT levels in the hippocampus vs. control: significantly enhanced; also recorded: increased significantly

## CCCCCCCC/C=C\CCCCCCCC(=O)N[C@H](CO)CC(C)C [Compound 5, Oleoyl-L-Leucinol amide]
Serotonin (5HT) levels; Hippocampus
  5HT: 419.8 ± 67.4 ng/g
Serotonin (5HT) levels; Hypothalamus
  5HT: 767.2 ± 51.9 ng/g
Serotonin (5HT) levels
  5HT levels in the hippocampus vs. control: increased significantly

## CCCCCCCC/C=C\CCCCCCCC(=O)N[C@H](CO)Cc1ccccc1 [Compound 26, Oleoyl-L-phenyl alaninol]
[1]
  norepinephrine levels in the hippocampus vs. control: increase significantly

## Oleyl-amine-carbonyl-D-valinol [Compound 14]
[1]; Hippocampus
  NE: 313.9 ± 48 ng/g
[1]; Hypothalamus
  NE: 1139.4 ± 43.3 ng/g
[1]
  norepinephrine levels in the hippocampus vs. control: increase significantly
  norepinephrine levels in the hypothalamus vs. control: increased significantly
[1]; listed as compound 14
  norepinephrine levels in the hippocampus vs. control: significantly enhanced
  norepinephrine levels in the hypothalamus vs. control: significantly enhanced
Serotonin (5HT) levels; Hippocampus
  5HT: 344 ± 32.4 ng/g
Serotonin (5HT) levels; Hypothalamus
  5HT: 876.4 ± 126.8 ng/g
Serotonin (5HT) levels
  5HT levels in the hippocampus vs. control: increased significantly
  5HT levels in the hypothalamus vs. control: increased significantly
Serotonin (5HT) levels; listed as compound 14
  5HT levels in the hippocampus vs. control: significantly enhanced
  5HT levels in the hypothalamus vs. control: significantly enhanced
